According to PMC11788587, “Validating Low‐Dose Iohexol as a Marker for Glomerular Filtration Rate by In Vitro and In Vivo Studies” (Clinical and Translational Science, 2025):

Assays:
OCT2 = test system: OCT2; parameters: method as in ref 15 Yang et al.; settings: HK‐2 cells; ref 15 Yang et al.; cited from earlier work
[1] = cited from earlier work
[2] = parameters: method as in PMID 32989831, PMID 30449032; settings: cited from earlier work
[3] = test system: hOAT1/3, hOCT1/2, hMATE1/2K, hOATP1B1/3, and hMDR1; experiment: Inhibition assays, summary across all transporters; type: cell-based, human
Text: We characterized the inhibitory potential of iohexol on major drug transporters recommended by regulatory agencies, which were previously assessed in a clinical transporter phenotyping cocktail study. These transporters include hOAT1, hOAT3, hOCT1, hOCT2, hMATE1, hMATE2K, human organic anion transporter polypeptides (hOATP)1B1, hOATP1B3, and human multidrug resistance protein (hMDR)1. Additionally, we investigated whether iohexol is a substrate for any of the renal transporters among these, including hOAT1/3, hOCT1/2, and hMATE1/2K. Cell‐based uptake assays were used to assess the activities of hOAT1/3, hOCT1/2, hMATE1/2K, and hOATP1B1/1B3. Inside‐out membrane vesicle uptake assays were used to evaluate the activity of hMDR1.
To determine the maximal inhibitory potential of iohexol, intracellular accumulation of a standard substrate was measured with and without the clinically relevant highest concentrations of iohexol. Control inhibitors were tested in each experiment.
According to guidelines for assessing TDDIs after intravenous administration, the highest test concentration should be up to 50 times the unbound maximal plasma concentration (Cmax). […]
In all subsequent in vitro studies, control experiments were conducted to validate the results. […] Each condition, including cells or vesicles with the transporter and their respective controls, was analyzed in at least three replicates. […]

## CC(=O)N(CC(O)CO)c1c(I)c(C(=O)NCC(O)CO)c(I)c(C(=O)NCC(O)CO)c1I (stereo not drawn) [iohexol]
OCT2
  Expression of OCT2: downregulated
[1]
  Volume of distribution, previous three-compartment model estimate (median): 15.09 L
[1]; following a 3235 mg iohexol injection, patients aged ≥ 70 years, median GFR 60.7 mL/min/1.73 m^2, read-out: Cmax (initial plasma concentration)
  Cmax: ~370 µM
[2]
  Iohexol clearance under OCT2 and MATE inhibitors: unaffected
[3]; in vitro, 1–20 mM iohexol
  Inhibitor of the transporters (conclusion): neither a substrate nor a significant inhibitor
[3]; iohexol 1 mM and 2 mM
  Inhibitory effect on transporter-mediated uptake of standard substrates: no significant inhibitory effect
